Values quoted from earlier work, collected in patent US8940275B2, “Nanoparticles based on gadolinium coordination polymers as highly sensitive T1 MRI contrast agents” (Kent State University, priority 2010, dated 2015).

Conditions: clinical MRI contrast agents; 1.5 T

First: O=C([O-])CN1CCN(CC(=O)[O-])CCN([C@H](CO)[C@H](O)CO)CCN(CC(=O)[O-])CC1.[Gd+3] (racemic) [Gadovist ®]
Second: CC(O)CN1CCN(CC(=O)[O-])CCN(CC(=O)[O-])CCN(CC(=O)[O-])CC1.[Gd+3] (stereo not drawn) [ProHance ®]
The R1 (typical relaxivity value) of the first is higher: 5.3 mM⁻¹ s⁻¹ for the first, 4.4 mM⁻¹ s⁻¹ for the second.

Compared with `CNC[C@H](O)[C@@H](O)[C@H](O)[C@H](O)CO.O=C([O-])CN1CCN(CC(=O)[O-])CCN(CC(=O)O)CCN(CC(=O)[O-])CC1.[Gd+3]` [Dotarem ®], `CNC[C@H](O)[C@@H](O)[C@H](O)[C@H](O)CO.CNC[C@H](O)[C@@H](O)[C@H](O)[C@H](O)CO.O=C([O-])CN(CCN(CC(=O)[O-])CC(=O)O)CCN(CC(=O)[O-])CC(=O)O.[Gd+3]` [Magnevist ®] is higher in R1 (typical relaxivity value): 4.2 mM⁻¹ s⁻¹ for the first, 4.3 mM⁻¹ s⁻¹ for the second.

Going from `CNC[C@H](O)[C@@H](O)[C@H](O)[C@H](O)CO.CNC[C@H](O)[C@@H](O)[C@H](O)[C@H](O)CO.O=C([O-])CN(CCN(CC(=O)[O-])CC(=O)O)CCN(CC(=O)O)C(COCc1ccccc1)C(=O)[O-].[Gd+3]` (stereo not drawn) [MultiHance] to `COCCNC(=O)CN(CCN(CCN(CC(=O)[O-])CC(=O)NCCOC)CC(=O)[O-])CC(=O)[O-].[Gd+3]` [OptiMARK], the R1 (typical relaxivity value) falls from 6.7 mM⁻¹ s⁻¹ to 5.2 mM⁻¹ s⁻¹.

Going from `CNC(=O)CN(CCN(CCN(CC(=O)[O-])CC(=O)NC)CC(=O)[O-])CC(=O)[O-].[Gd+3]` [Omniscan ®] to `CCOc1ccc(CC(CN(CCN(CC(=O)[O-])CC(=O)[O-])CC(=O)[O-])N(CC(=O)[O-])CC(=O)[O-])cc1.[Gd+3].[Na+].[Na+]` (stereo not drawn) [Primovist], the R1 (typical relaxivity value) rises from 4.6 mM⁻¹ s⁻¹ to 7.3 mM⁻¹ s⁻¹.

Conditions: commercial agents, field not given

For `CNC[C@H](O)[C@@H](O)[C@H](O)[C@H](O)CO.CNC[C@H](O)[C@@H](O)[C@H](O)[C@H](O)CO.O=C([O-])CN(CCN(CC(=O)[O-])CC(=O)O)CCN(CC(=O)[O-])CC(=O)O.[Gd+3]` [Magnevist ®], the r1 is listed as 4.3 mM⁻¹ s⁻¹.
